Measurements from patent US10344035B2, “Salt of quinolone compound, polymorphs thereof, preparation method therefor, composition, and applications” (SHANGHAI PHARMACEUTICALS HOLDING CO., LTD., priority 2015, dated 2019).
pIC50: −log10 of the molar value. “And” between values parts separate entries of the source, which are not always exact repeats. Equal values may be shown once.

Experiments:
[1] = test system: H1993 human lung cancer cell; test: Inhibition of proliferation of human lung cancer H1993 cells (CCK-8); format: cell-based; conditions: Homo sapiens, NCI-H1993, 72 h, CCK-8, 72 hours incubation; read-out: IC50, proliferation of H1993 cell line
Protocol: CCK-8 is a kit for detecting cell proliferation, cell survival and cytotoxicity and an alternative method for the MTT method.
All samples were formulated to a 10^−2 M stock solution with DMSO and stored in small quantities at −80° C. for use.
1, Cell culture and inoculation: on the first day of the experiment, took normal cultured cells, when cells were in the exponential growth phase, the cells were dispersed by digesting and then inoculated in a 96-well cell culture plate at a density of 5.5×10^4 cells/mL (representing 55000 cells per mL), 90 μL per well; after completion of inoculation, the microplate was placed at 37° C. under 5% CO2 condition overnight.
According to different cell lines, the starting concentration of each compound was different.
3, Data acquisition: the compound and cells were incubated for 72 hours, the microplate containing the cells was taken out from incubator, 10 μL Cell Counting Kit-8 reaction solution was added to each well, and the microplate was placed in an incubator for 2-3 hours. The absorbance values were measured at 450 nm on the Flexstation 3 and set 650 nm as the reference wavelength.

[2] = test system: human hepatoma MHCC97H cell line; test: Anti-tumor effect in MHCC97H xenograft model; format: in vivo, BALB/c nude mice; conditions: for relative tumor volume (x ± S) / tumor volume (x ± S) / T/C / TGI (relative tumor inhibition rate): 25th day after dosing; for TGI (relative tumor inhibition rate): from relative tumor volume; for Tumor weight (x ± s) / TGI (tumor weight): 26th day after dosing; for TGI (tumor weight): from tumor weight
Protocol: (§1) BALB/c nude mice were subcutaneously inoculated with MHCC97H cells to develop human hepatocellular carcinoma subcutaneously transplanted tumor model. The experiment was divided into groups including crystal form A of SPH1772 ditartrate (0.05 mg/kg, 0.5 mg/kg and 5 mg/kg), positive control INC280 hydrochloride (5 mg/kg), and Vehicle control group, 10 mice in each group, intragastric administration once a day, lasting 21 days. The efficacy was according to the relative tumor inhibition rate (TGI) and tumor growth delay time, the safety was evaluated according to animal weight and death.
BALB/c nude mice, female, 7 to 9 weeks old (the age when mice were inoculated with tumor cells), weight 19.5 to 23.9 g, 75 animals. BALB/c nude mice were purchased from Shanghai Lingchang Biotechnology Co., Ltd., animal certificate number: 2013001816956. Rearing environment: SPF level.
MHCC97H (Zhongshan Hospital subsidiary to Fudan University) was cultured in DMEM containing 10% fetal bovine serum. MHCC97H cells were collected during exponential growth phase, the cells in PBS was re-suspended to a suitable concentration for subcutaneous tumor inoculation in mice.
0.2 mL 1×10^7 MHCC97H cells re-suspended in PBS and Matrigel (1:1) was subcutaneously inoculated to the right side of 75 mice. When the mean tumor volume reached 157 mm^3, mice were randomly grouped based on tumor volume. The formula for calculating the tumor volume was that long diameter×short diameter^2/2.
Relative tumor inhibition rate TGI (%): TGI=1−T/C (%). T/C % is the relative tumor proliferation rate, which is the percentage of the relative tumor volume or tumor weight in the treatment group to that of the control group at a certain time. T and C are respectively the relative tumor volume (RTV) or tumor weight (TW) of the treatment group and control group at a certain time.
The formula was as follows: T/C %=TRTV/CRTV*100% (TRTV: mean RTV in the treatment group; CRTV: mean RTV in the control group; RTV=Vt/V0, V0 was the tumor volume of the animal when grouped, and Vt was the tumor volume of the animal after treatment). Or T/C %=TTW/CTW×100% (TTW: mean tumor weight in the treatment group at the end of the experiment; CTW: mean tumor weight in the control group at the end of experiment).
1.5 h and 24 h after the last dose, blood and tumor were collected, the tumor was weighted, and photographs were taken.
All experimental results were expressed as mean tumor volume±SEM (mean standard error). Statistical analysis between different groups was performed on the best point of drug treatment (usually after the last dosing). The independent sample T test method was used to evaluate whether there was significant difference between the relative tumor volume and tumor weight in the treatment group to that of the control group. All data was analyzed by SPSS 18.0. p<0.05 was considered having significant differences.

[3] = Safety (animal weight and death) in MHCC97H model; format: in vivo; conditions: MHCC97H model, 0.05, 0.5 and 5 mg/kg once a day, 21 days
Protocol: as §1

[4] = 0.05 mg/kg intragastric once a day
[5] = 0.5 mg/kg intragastric once a day
[6] = 5 mg/kg intragastric once a day

Cn1cc(-c2cnc3ccc(Cn4nnc5ncc(-c6cnn(C)c6)nc54)cc3c2)cn1 [crystal form A of SPH1772 ditartrate]
pIC50 [1]: 9.15
relative tumor volume (x ± S) [2, 4]: 3.03 ± 0.56
tumor volume (x ± S) [2, 4]: 469 mm^3 and 469 ± 85 mm^3
T/C ([2]; 0.05 mg/kg): 26%
TGI (relative tumor inhibition rate) ([2]; 0.05 mg/kg): 74%
Tumor weight (x ± s) ([2]; 0.05 mg/kg): 493 ± 71 mg
TGI (tumor weight) ([2]; 0.05 mg/kg): 69%
relative tumor volume (x ± S) [2, 5]: 0.39 ± 0.03
tumor volume (x ± S) [2, 5]: 60 mm^3 and 60 ± 5 mm^3
T/C ([2]; 0.5 mg/kg): 3%
TGI (relative tumor inhibition rate) ([2]; 0.5 mg/kg): 97%
Tumor weight (x ± s) ([2]; 0.5 mg/kg): 48 ± 2 mg
TGI (tumor weight) ([2]; 0.5 mg/kg): 97%
relative tumor volume (x ± S) [2, 6]: 0.14 ± 0.02
tumor volume (x ± S) [2, 6]: 22 mm^3 and 22 ± 3 mm^3
T/C ([2]; 5 mg/kg): 1%
TGI (relative tumor inhibition rate) ([2]; 5 mg/kg): 99%
Tumor weight (x ± s) ([2]; 5 mg/kg): 31 ± 3 mg
TGI (tumor weight) ([2]; 5 mg/kg): 98%
death, drug toxicity and tolerability during the treatment period [3]: no animal died, no significant drug toxicity was exhibit, and they were well tolerated
